Tests used:
Assay type in all cases: biochemical
[1] = target: T1, human Yes1 enzyme (Homo sapiens, UniProt P07947); assay: Yes1 enzyme inhibitory activity (time-resolved fluorometry, biotinylated peptide phosphorylation); conditions: biotinylated peptide phosphorylation, read-out: YES_IC50
T1 construct: made in house
Method in brief: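 Inhibition was expressed against a compound-free control to give IC50, using TR-FRET read-out (Eu-cryptate anti-pTyr antibody, streptavidin-XL665).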

[2] = target: T2, human Src enzyme (Homo sapiens, UniProt P12931); assay: Src enzyme inhibitory activity (time-resolved fluorometry, biotinylated peptide phosphorylation); conditions: biotinylated peptide phosphorylation, read-out: SRC_IC50
T2 construct: purchased Carna Biosciences, Inc. 08-173
Method in brief: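 Compounds were tested for blocking tyrosine phosphorylation of a biotinylated peptide substrate by recombinant human Src. Phosphorylated product was quantified by time-resolved fluorometry using europium cryptate and XL665 conjugates, and IC50 was calculated against the compound-free control.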

[3] = target: T3, human Lck enzyme (Homo sapiens, UniProt P06239); assay: Lck enzyme inhibitory activity (time-resolved fluorometry, biotinylated peptide phosphorylation); conditions: biotinylated peptide phosphorylation, read-out: LCK_IC50
T3 construct: purchased Carna Biosciences, Inc. 08-170
Method in brief: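 Readout pairs a europium cryptate-labelled anti-phosphotyrosine antibody with XL665-streptavidin, measured by time-resolved fluorescence. IC50 derived from percent inhibition against untreated controls.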

T3 sequence (P06239 whole entry): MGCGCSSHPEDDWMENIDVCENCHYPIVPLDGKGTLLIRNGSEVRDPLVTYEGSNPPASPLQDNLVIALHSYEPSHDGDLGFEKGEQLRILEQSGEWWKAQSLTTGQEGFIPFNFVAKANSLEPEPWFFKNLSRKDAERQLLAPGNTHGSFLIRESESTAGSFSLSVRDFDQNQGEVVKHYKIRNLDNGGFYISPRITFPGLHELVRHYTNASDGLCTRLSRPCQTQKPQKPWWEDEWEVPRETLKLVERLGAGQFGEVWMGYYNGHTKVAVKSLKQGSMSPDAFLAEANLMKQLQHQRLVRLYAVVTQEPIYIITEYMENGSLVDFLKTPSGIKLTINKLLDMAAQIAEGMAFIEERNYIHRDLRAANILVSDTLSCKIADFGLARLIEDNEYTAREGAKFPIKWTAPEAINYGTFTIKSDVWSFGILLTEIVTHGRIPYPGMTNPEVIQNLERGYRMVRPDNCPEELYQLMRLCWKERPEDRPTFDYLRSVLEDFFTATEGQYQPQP
T1 sequence (P07947 whole entry): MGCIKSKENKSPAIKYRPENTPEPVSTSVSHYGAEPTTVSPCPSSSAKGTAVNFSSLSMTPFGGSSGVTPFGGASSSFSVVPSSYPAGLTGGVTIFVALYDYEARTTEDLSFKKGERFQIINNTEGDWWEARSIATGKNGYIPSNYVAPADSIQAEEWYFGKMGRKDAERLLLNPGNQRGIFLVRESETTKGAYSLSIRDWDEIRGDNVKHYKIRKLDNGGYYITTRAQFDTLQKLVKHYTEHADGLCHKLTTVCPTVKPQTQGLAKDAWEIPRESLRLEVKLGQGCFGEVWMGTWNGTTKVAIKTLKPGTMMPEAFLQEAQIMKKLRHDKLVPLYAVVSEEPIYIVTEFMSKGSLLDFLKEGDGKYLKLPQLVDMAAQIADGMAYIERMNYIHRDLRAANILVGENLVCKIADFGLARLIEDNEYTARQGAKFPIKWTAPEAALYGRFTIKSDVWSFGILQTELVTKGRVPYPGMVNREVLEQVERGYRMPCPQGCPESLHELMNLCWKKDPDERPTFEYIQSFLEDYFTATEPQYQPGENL
T2 sequence (P12931 whole entry): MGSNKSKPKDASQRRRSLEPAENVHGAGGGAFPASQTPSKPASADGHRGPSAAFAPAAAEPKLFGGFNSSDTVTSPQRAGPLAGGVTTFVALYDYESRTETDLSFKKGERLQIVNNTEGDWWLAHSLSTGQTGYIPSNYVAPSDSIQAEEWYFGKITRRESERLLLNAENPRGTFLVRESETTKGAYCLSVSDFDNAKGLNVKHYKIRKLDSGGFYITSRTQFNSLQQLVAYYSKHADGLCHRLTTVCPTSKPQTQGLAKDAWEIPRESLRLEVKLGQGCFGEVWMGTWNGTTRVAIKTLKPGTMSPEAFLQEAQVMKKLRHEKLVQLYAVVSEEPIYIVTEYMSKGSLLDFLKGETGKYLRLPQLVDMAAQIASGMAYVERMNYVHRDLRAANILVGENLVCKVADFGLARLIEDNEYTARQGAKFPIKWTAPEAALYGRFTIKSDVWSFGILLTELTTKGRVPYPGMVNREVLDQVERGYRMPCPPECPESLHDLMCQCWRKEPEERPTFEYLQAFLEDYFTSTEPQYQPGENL

| IC50 [1] [nM] | IC50 [2] [nM] | IC50 [3] [nM] | SMILES |
| --- | --- | --- | --- |
| 6.8 | 140 | 62 | Cc1cc(Oc2ccccc2F)ccc1-n1ncc(C(=O)c2cc3cc(F)c(NS(=O)(=O)NC4CCC4)cc3[nH]2)c1N [Example 4-5-006, [5-amino-1-[4-(2-fluorophenoxy)-2-methylphenyl]pyrazol-4-yl]-[6-(cyclobutylsulfamoylamino)-5-fluoro-1H-indol-2-yl]methanone] |
| 0.5 | 33 | 18 | COCCNS(=O)(=O)Nc1cc2[nH]c(C(=O)c3cnn(-c4ccc(Oc5ccccc5F)cc4C)c3N)cc2cc1F [Example 4-5-007, [5-amino-1-[4-(2-fluorophenoxy)-2-methylphenyl]pyrazol-4-yl]-[5-fluoro-6-(2-methoxyethylsulfamoylamino)-1H-indol-2-yl]methanone] |
| 0.55 | 31 | 8.2 | Cc1cc(Oc2ccccc2F)ccc1-n1ncc(C(=O)c2cc3cc(F)c(NS(=O)(=O)NC4(C)COC4)cc3[nH]2)c1N [Example 4-5-008, [5-amino-1-[4-(2-fluorophenoxy)-2-methylphenyl]pyrazol-4-yl]-[5-fluoro-6-[(3-methyloxetan-3-yl)sulfamoylamino]-1H-indol-2-yl]methanone] |
| 0.68 | 35 | 12 | CONS(=O)(=O)Nc1cc2[nH]c(C(=O)c3cnn(-c4ccc(Oc5ccccc5F)cc4C)c3N)cc2cc1F [Example 4-5-009, [5-amino-1-[4-(2-fluorophenoxy)-2-methylphenyl]pyrazol-4-yl]-[5-fluoro-6-(methoxysulfamoylamino)-1H-indol-2-yl]methanone] |
| 1.8 | 34 | 22 | Cc1cc(Oc2ccccc2F)ccc1-n1ncc(C(=O)c2cc3cc(F)c(NS(=O)(=O)NC4CC4)cc3[nH]2)c1N [Example 4-5-010, [5-amino-1-[4-(2-fluorophenoxy)-2-methylphenyl]pyrazol-4-yl]-[6-(cyclopropylsulfamoylamino)-5-fluoro-1H-indol-2-yl]methanone] |
| 1.6 | 110 | 65 | Cc1cc(Oc2cccc(F)c2F)cc(F)c1-n1ncc(C(=O)c2cc3cc(F)c(NS(=O)(=O)N4CCOCC4)cc3[nH]2)c1N [Example 4-5-011, N-[2-[5-amino-1-[4-(2,3-difluorophenoxy)-2-fluoro-6-methylphenyl]pyrazole-4-carbonyl]-5-fluoro-1H-indol-6-yl]morpholine-4-sulfonamide] |
| 1 | 78 | 12 | Cc1cc(Oc2ccccc2F)ncc1-n1ncc(C(=O)c2cc3cc(F)c(NS(=O)(=O)NC4CCOCC4)cc3[nH]2)c1N [Example 4-5-012, [5-amino-1-[6-(2-fluorophenoxy)-4-methylpyridin-3-yl]pyrazol-4-yl]-[5-fluoro-6-(oxan-4-ylsulfamoylamino)-1H-indol-2-yl]methanone] |
| 0.92 | 70 | 13 | Cc1cc(Oc2ccccc2F)ncc1-n1ncc(C(=O)c2cc3cc(F)c(NS(=O)(=O)NCCO)cc3[nH]2)c1N [Example 4-6-001, {5-amino-1-[6-(2-fluorophenoxy)-4-methylpyridin-3-yl]pyrazol-4-yl}-[5-fluoro-6-(2-hydroxyethylsulfamoylamino)-1H-indol-2-yl]methanone] |
| 0.35 | 16 | 4.6 | Cc1cc(Oc2ccccc2F)ccc1-n1ncc(C(=O)c2cc3cc(F)c(NS(=O)(=O)NCCO)cc3[nH]2)c1N [Example 4-6-002, [5-amino-1-[4-(2-fluorophenoxy)-2-methylphenyl]pyrazol-4-yl]-[5-fluoro-6-(2-hydroxyethylsulfamoylamino)-1H-indol-2-yl]methanone] |
| 2.3 | 88 | 22 | Cc1cc(Oc2ccccc2F)ccc1-n1ncc(C(=O)c2cc3cc(F)c(NS(=O)(=O)NC(C)(C)CO)cc3[nH]2)c1N [Example 4-6-003, [5-amino-1-[4-(2-fluorophenoxy)-2-methylphenyl]pyrazol-4-yl]-[5-fluoro-6-[(1-hydroxy-2-methylpropan-2-yl)sulfamoylamino]-1H-indol-2-yl]methanone] |
| 1.1 | 41 | 6.9 | Cc1cc(Oc2ccccc2F)ccc1-n1ncc(C(=O)c2cc3cc(F)c(NS(=O)(=O)NCC(C)(C)O)cc3[nH]2)c1N [Example 4-6-004, [5-amino-1-[4-(2-fluorophenoxy)-2-methylphenyl]pyrazol-4-yl]-[5-fluoro-6-[(2-hydroxy-2-methylpropyl)sulfamoylamino]-1H-indol-2-yl]methanone] |
| 2.2 | 41 | 10 | Cc1cc(Oc2ccccc2F)ncc1-n1ncc(C(=O)c2cc3cc(F)c(NS(C)(=O)=O)cc3[nH]2)c1N [Example 4-7-001, N-{2-{5-amino-1-[6-(2-fluorophenoxy)-4-methylpyridin-3-yl]pyrazole-4-carbonyl}-5-fluoro-1H-indol-6-yl}methanesulfonamide] |
| 0.43 | 9.5 | 9.1 | Cc1cc(Oc2ccccc2F)ccc1-n1ncc(C(=O)c2cc3cc(F)c(NS(=O)(=O)CC4COCCO4)cc3[nH]2)c1N (stereo not drawn) [Example 4-7-002, N-[2-[5-amino-1-[4-(2-fluorophenoxy)-2-methylphenyl]pyrazole-4-carbonyl]-5-fluoro-1H-indol-6-yl]-1-(1,4-dioxan-2-yl)methanesulfonamide] |
| 1 | 19 | 7.1 | Cc1cc(Oc2ccccc2F)cc(F)c1-n1ncc(C(=O)c2cc3cc(F)c(NS(C)(=O)=O)cc3[nH]2)c1N [Example 4-7-003, N-[2-[5-amino-1-[2-fluoro-4-(2-fluorophenoxy)-6-methylphenyl]pyrazole-4-carbonyl]-5-fluoro-1H-indol-6-yl]methanesulfonamide] |
| 4.8 | 220 | 40 | Cc1cc(Oc2ccccc2F)cc(F)c1-n1ncc(C(=O)c2cc3cc(F)c(NS(=O)(=O)C4CC4)cc3[nH]2)c1N [Example 4-7-004, N-[2-[5-amino-1-[2-fluoro-4-(2-fluorophenoxy)-6-methylphenyl]pyrazole-4-carbonyl]-5-fluoro-1H-indol-6-yl]cyclopropanesulfonamide] |
| 2.8 | 160 | 45 | Cc1cc(Oc2cccc(F)c2F)cc(F)c1-n1ncc(C(=O)c2cc3cc(F)c(NS(C)(=O)=O)cc3[nH]2)c1N [Example 4-7-005, N-[2-[5-amino-1-[4-(2,3-difluorophenoxy)-2-fluoro-6-methylphenyl]pyrazole-4-carbonyl]-5-fluoro-1H-indol-6-yl]methanesulfonamide] |
| 7 | 380 | 160 | Cc1cc(Oc2cccc(F)c2F)cc(F)c1-n1ncc(C(=O)c2cc3cc(F)c(NS(=O)(=O)C4CC4)cc3[nH]2)c1N [Example 4-7-006, N-[2-[5-amino-1-[4-(2,3-difluorophenoxy)-2-fluoro-6-methylphenyl]pyrazole-4-carbonyl]-5-fluoro-1H-indol-6-yl]cyclopropanesulfonamide] |
| 2 | 190 | 41 | Cc1cc(Oc2cc(F)ccc2F)cc(F)c1-n1ncc(C(=O)c2cc3cc(F)c(NS(C)(=O)=O)cc3[nH]2)c1N [Example 4-7-007, N-[2-[5-amino-1-[4-(2,5-difluorophenoxy)-2-fluoro-6-methylphenyl]pyrazole-4-carbonyl]-5-fluoro-1H-indol-6-yl]methanesulfonamide] |
| 5.9 | 490 | 140 | Cc1cc(Oc2cc(F)ccc2F)cc(F)c1-n1ncc(C(=O)c2cc3cc(F)c(NS(=O)(=O)C4CC4)cc3[nH]2)c1N [Example 4-7-008, N-[2-[5-amino-1-[4-(2,5-difluorophenoxy)-2-fluoro-6-methylphenyl]pyrazole-4-carbonyl]-5-fluoro-1H-indol-6-yl]cyclopropanesulfonamide] |
| 3.7 | 150 | 34 | Cc1cc(Oc2ccccc2Cl)cc(F)c1-n1ncc(C(=O)c2cc3cc(F)c(NS(C)(=O)=O)cc3[nH]2)c1N [Example 4-7-009, N-[2-[5-amino-1-[4-(2-chlorophenoxy)-2-fluoro-6-methylphenyl]pyrazole-4-carbonyl]-5-fluoro-1H-indol-6-yl]methanesulfonamide] |
| 9 | 280 | 100 | Cc1cc(Oc2ccccc2Cl)cc(F)c1-n1ncc(C(=O)c2cc3cc(F)c(NS(=O)(=O)C4CC4)cc3[nH]2)c1N [Example 4-7-010, N-[2-[5-amino-1-[4-(2-chlorophenoxy)-2-fluoro-6-methylphenyl]pyrazole-4-carbonyl]-5-fluoro-1H-indol-6-yl]cyclopropanesulfonamide] |
| 14 | 200 | 97 | Cc1cc(Oc2cccc(Cl)c2)cc(F)c1-n1ncc(C(=O)c2cc3cc(F)c(NS(C)(=O)=O)cc3[nH]2)c1N [Example 4-7-011, N-[2-[5-amino-1-[4-(3-chlorophenoxy)-2-fluoro-6-methylphenyl]pyrazole-4-carbonyl]-5-fluoro-1H-indol-6-yl]methanesulfonamide] |
| 14 | 330 | 160 | Cc1cc(Oc2cccc(Cl)c2)cc(F)c1-n1ncc(C(=O)c2cc3cc(F)c(NS(=O)(=O)C4CC4)cc3[nH]2)c1N [Example 4-7-012, N-[2-[5-amino-1-[4-(3-chlorophenoxy)-2-fluoro-6-methylphenyl]pyrazole-4-carbonyl]-5-fluoro-1H-indol-6-yl]cyclopropanesulfonamide] |

Source: patent US10479780B2, “Aminopyrazole derivatives” (Chugai Seiyaku Kabushiki Kaisha, priority 2015, dated 2019)
